The assay deals with DYRK1A (Homo sapiens (Human), UniProt Q13627). Put plainly: DYRK1A Inhibition Assay. Format: biochemical. Conditions: DYRK1A 1 nM, ATP 20 μM, Ser/Thr 18 peptide 2 μM, 90 minutes, read-out: DYRK1 IC50. The method, then: DYRK1A—Invitrogen #PV4105
• Ser/Thr 18 peptide—Invitrogen #PR8227U • Phos-Ser/Thr 18 peptide—Invitrogen #PR8229U • Assay plate—PerkinElmer #6007279 • ATP—Sigma #A7699-5G • Development reagent A—Invitrogen #PR5194B • Development buffer—Invitrogen #PR4876B Compound preparation • 1. Test compounds were diluted to 1 mM in DMSO • 2. Stock was further diluted 3-fold using Echo platform • 3. 100 nL of DMSO into Columns 1 and 24 and 100 nL of compounds dilutions to Columns 2-23 in a plate.
• 1. Add 5 μL enzyme & substrate mixture to each well in Column 2-23 and A24-H24 wells of the 384-well assay plate; • 2. Add 5 μL 0% Phosphorylation control to A1-H1 and I24-P24 wells of the assay plate; • 3. Add 5 μL 100% Phosphorylation control to I1-P1 wells of the assay plate; • 4. Spin the assay plate (1000 rpm, 1 minute @23° C.); • 5. Incubate enzyme with compounds for 15 minutes at 23° C.; • 6. Add 5 μL ATP solution to each well of the assay plate; • 7. Spin the plate (1000 rpm, 1 minute @23° C.); • 8. Incubate the assay plate for 90 minutes at 23° C.; • 9. Add 10 μL Development reagent A to each well of the assay plate; • 10. Centrifuge the plate at 1000 rpm about 15 seconds and seal a film over assay plate. Incubate the assay plate for 30 minutes at 23° C. • 11. Read assay plates on Envision (see Tables A-D).
Final Compound Concentrations
• Assay buffer: 50 mM Hepes pH7.5, 10 mM MgCl2, 1 mM EDTA, 0.01% Brij-35 • DYRK1A: 1 nM • ATP: 20 μM • Ser/Thr 18 peptide: 2 μM • Reaction time: 90 minutes

The values below come from patent publication US20250066349A1 (Prothena Biosciences Limited, priority 2021, published 2025).

Like-named read-outs stand apart in the source and are kept apart here.

On to `O=C(O)[C@H]1C[C@H](c2c[nH]c3ncc4cccnc4c32)C1` [Compound 37, (1r,3r)-3-(7H-pyrrolo[2,3-h][1,6]naphthyridin-9-yl)cyclobutane-1-carboxylic acid], for which the half-inhibitory concentration (IC50) (Compounds of Formula (I)) fell in the range of 10 to 100 nM. As for `Cc1ncc(-c2ccc3cnc4cc(C5CCOCC5)sc4c3c2)s1` [Compound 79, 8-(2-methylthiazol-5-yl)-2-(tetrahydro-2H-pyran-4-yl)thieno[3,2-c]isoquinoline], where the note is “Compounds of Formula (I)”, the IC50 was 10 to 100 nM.

On to `O=C(O)[C@H]1C[C@@H](c2c[nH]c3ncc4cccnc4c32)C1` [Compound 36, (1s,3s)-3-(7H-pyrrolo[2,3-h][1,6]naphthyridin-9-yl)cyclobutane-1-carboxylic acid], for which, where the note is “Compounds of Formula (I)”, the IC50 was 100 to 1000 nM.

With `c1ncc(-c2ccc3cnc4c(c3c2)CCO4)s1` [Compound 75, 8-(thiazol-5-yl)-1,2-dihydrofuro[2,3-c]isoquinoline], the IC50 (Compounds of Formula (I)) is 10 to 100 nM. As to `O=c1[nH]c2cc3c(cc2o1)[nH]c(=O)n3-c1cccc(O)c1` [Compound 11], the IC50 (Compounds of Formula (IV)) was in the range of 1000 to 5000 nM. On to `Cn1ncc2ccc(-c3cnc(C#CC4CCNCC4)s3)cc21` [Compound 7], for which the IC50 (Compounds of Formula (III)) was in the range of 50 to 200 nM. Take `Cn1cc(-c2ccc3cnc4c(c3c2)c([C@H]2CC[C@H](N(C)C)CC2)cn4C)cn1` [Compound 50, (1r,4r)-N,N-dimethyl-4-(3-methyl-8-(1-methyl-1H-pyrazol-4-yl)-3H-pyrrolo[2,3-c]isoquinolin-1-yl)cyclohexan-1-amine]: the IC50 (Compounds of Formula (I)) fell in the range of 10 to 100 nM. `Cn1cc(-c2ccc3cnc4[nH]ncc4c3c2)cn1` [Compound 7, 8-(1-methyl-1H-pyrazol-4-yl)-3H-pyrazolo[3,4-c]isoquinoline]: the IC50 (Compounds of Formula (I)) lay in the range of 10 to 100 nM. For `CC(=O)N1CCc2c(cnc3[nH]cc(-c4cccnc4)c23)C1` [Compound 8], the IC50 (Compounds of Formula (IV)) was in the range of 1000 to 5000 nM. With `COc1cc(-c2ccc3c4c([nH]c(=O)c3c2)CN(C)CC4)ccc1F` [Compound 12], the IC50 (Compounds of Formula (IV)) lay in the range of 1000 to 5000 nM. With `O=c1[nH]c2ncc(-c3ccc4cnsc4c3)cc2n1C1CCC1` [Compound 31, 6-(benzo[d]isothiazol-6-yl)-1-cyclobutyl-1,3-dihydro-2H-imidazo[4,5-b]pyridin-2-one], the IC50 (Compounds of Formula (I)) lay within 100 to 1000 nM.

For `c1ncc(-c2ccc3cnc4cc(C5CCOCC5)sc4c3c2)o1` [Compound 73, 5-(2-(tetrahydro-2H-pyran-4-yl)thieno[3,2-c]isoquinolin-8-yl)oxazole], for the setting “Compounds of Formula (I)”, the IC50 lay within 10 to 100 nM. As for `Cn1cc(-c2ccc3cnc4c(c(C5CCC5)cn4C)c3c2)cn1` [Compound 38, 1-cyclobutyl-3-methyl-8-(1-methyl-1H-pyrazol-4-yl)-3H-pyrrolo[2,3-c]isoquinoline], for the setting “Compounds of Formula (I)”, the IC50 was in the range of 10 to 100 nM. The same measure, in the same setting: under `CC(C)CN1CCC(c2cc3c(ncc4ccc(-c5cncn5C)cc43)[nH]2)CC1` [Compound 87] stands 10 to 100 nM; under `O[C@@H]1CCN(c2cncc(-c3ccc4cnc5[nH]cc(C6CCC6)c5c4c3)c2)C1` [Compound 67, (R)-1-(5-(1-cyclobutyl-3H-pyrrolo[2,3-c]isoquinolin-8-yl)pyridin-3-yl)pyrrolidin-3-ol], no more than 10 nM; under `CN1CCC(c2nccc3c2cnc2[nH]cc(-c4ccncc4)c23)CC1` [Compound 44, 6-(1-methylpiperidin-4-yl)-1-(pyridin-4-yl)-3H-pyrrolo[2,3-c][2, 7]naphthyridine], 100 to 1000 nM. `Cc1c(C2CCN(CCF)CC2)[nH]c2ncc3ccc(-c4cnn(C)c4)cc3c12` [Compound 54, 2-(1-(2-fluoroethyl)piperidin-4-yl)-1-methyl-8-(1-methyl-1H-pyrazol-4-yl)-3H-pyrrolo[2,3-c]isoquinoline]: the IC50 (Compounds of Formula (I)) was no more than 10 nM.

Consider `O[C@H]1CCN(c2cncc(-c3ccc4cnc5[nH]c(C6CCC6)cc5c4c3)c2)C1` [Compound 69], for which the IC50 (Compounds of Formula (I)) fell in the range of 10 to 100 nM. On to `Cc1c(C2CCN(CC(C)(C)O)CC2)[nH]c2ncc3ccc(-c4cnn(C)c4)cc3c12` [Compound 56, 2-methyl-1-(4-(1-methyl-8-(1-methyl-1H-pyrazol-4-yl)-3H-pyrrolo[2,3-c]isoquinolin-2-yl)piperidin-1-yl)propan-2-ol], for which the IC50 (Compounds of Formula (I)) was no more than 10 nM. Regarding `Cn1cc(-c2ccc3cnc4c(c3c2)c([C@H]2CC[C@@H](N(C)C)CC2)cn4C)cn1` [Compound 49, (1s,4s)-N,N-dimethyl-4-(3-methyl-8-(1-methyl-1H-pyrazol-4-yl)-3H-pyrrolo[2,3-c]isoquinolin-1-yl)cyclohexan-1-amine], the IC50 (Compounds of Formula (I)) fell in the range of 10 to 100 nM.

`Cc1[nH]c2ncc3ccncc3c2c1-c1cccc(C(=O)O)c1` [Compound 95, 3-(8-methyl-7H-pyrrolo[2,3-c][2,6]naphthyridin-9-yl)benzoic acid]: the IC50 (Compounds of Formula (I)) lay in the range of 100 to 1000 nM. The same measure, in the same setting: under `Cn1cc(-c2ccc3cnc4[nH]cc(C5CCN(S(C)(=O)=O)CC5)c4c3c2)cn1` [Compound 29, 8-(1-methyl-1H-pyrazol-4-yl)-1-(1-(methylsulfonyl)piperidin-4-yl)-3H-pyrrolo[2,3-c]isoquinoline] stands no more than 10 nM. Take `Cc1c(-c2cccnc2)[nH]c2ncc3cnccc3c12` [Compound 53]: under “Compounds of Formula (I)”, the IC50 lay within 100 to 1000 nM. Regarding `CN1CCC(c2cc3c(-c4cc5scnc5cn4)ccnc3[nH]2)CC1` [Compound 4], for the setting “Compounds of Formula (II)”, the IC50 lay in the range of 100 to 1000 nM.

For the molecule `CN1CCC(C(=O)Nc2ncc(-c3ccc4ncoc4c3)s2)CC1` [Compound 1], under “Compounds of Formula (III)”, the 50% inhibitory concentration (IC50) lay within 50 to 200 nM. Still for that read-out and setting: under `CN1CCC(C(=O)Nc2ncc(-c3ccc4sncc4c3)s2)CC1` [Compound 5] stands 200 to 1000 nM.

Take `COC1CC(n2c(=O)[nH]c3ncc4ccc(-c5cnn(C)c5)cc4c32)C1` (stereo not shown) [Compound 22, 1-(3-methoxycyclobutyl)-8-(1-methyl-1H-pyrazol-4-yl)-1,3-dihydro-2H-imidazo[4,5-c]isoquinolin-2-one]: for the setting “Compounds of Formula (I)”, the IC50 is 100 to 1000 nM. With `Cn1cc(-c2ccc3cnc4nc(C5CCOCC5)oc4c3c2)cn1` [Compound 82, 8-(1-methyl-1H-pyrazol-4-yl)-2-(tetrahydro-2H-pyran-4-yl)oxazolo[4,5-c]isoquinoline], the IC50 (Compounds of Formula (I)) lay within 100 to 1000 nM. On to `CN1CCN(C(=O)c2c[nH]c3ncc4ccc(-c5cccnc5)cc4c23)CC1` [Compound 10, (4-methylpiperazin-1-yl)(8-(pyridin-3-yl)-3H-pyrrolo[2,3-c]isoquinolin-1-yl)methanone], for which the IC50 (Compounds of Formula (I)) lay in the range of 100 to 1000 nM. As for `Cn1cc(-c2ccc3cnc4c(c3c2)CC(=O)N4)cn1` [Compound 85, 8-(1-methyl-1H-pyrazol-4-yl)-1,3-dihydro-2H-pyrrolo[2,3-c]isoquinolin-2-one], the IC50 (Compounds of Formula (I)) fell in the range of 10 to 100 nM. For `C(#CC1CCOCC1)c1ncc(-c2ccc3cnc4[nH]ccc4c3c2)s1` [Compound 59], the IC50 (Compounds of Formula (I)) was no more than 10 nM. For the molecule `Cn1cc(-c2ccc3cnc4[nH]c(=O)n(C5CC(O)C5)c4c3c2)cn1` (stereo not shown) [Compound 21, 1-(3-hydroxycyclobutyl)-8-(1-methyl-1H-pyrazol-4-yl)-1,3-dihydro-2H-imidazo[4,5-c]isoquinolin-2-one], where the note is “Compounds of Formula (I)”, the IC50 fell in the range of 10 to 100 nM. On the same count and under the same terms, in the case of `Cn1cc(-c2ccc3cnc4nc(C5CCOCC5)sc4c3c2)cn1` [Compound 81, 8-(1-methyl-1H-pyrazol-4-yl)-2-(tetrahydro-2H-pyran-4-yl)thiazolo[4,5-c]isoquinoline] it was 100 to 1000 nM; in that of `CN1CCC(c2cc3c(ncc4ccc(-c5cnn(C)c5)cc43)[nH]2)CC1` [Compound 40, 8-(1-methyl-1H-pyrazol-4-yl)-2-(1-methylpiperidin-4-yl)-3H-pyrrolo[2,3-c]isoquinoline], no more than 10 nM; in that of `O=c1[nH]c2ncc3ccc(-c4cccnc4)cc3c2n1Cc1cccnc1` [Compound 11, 8-(pyridin-3-yl)-1-(pyridin-3-ylmethyl)-1,3-dihydro-2H-imidazo[4,5-c]isoquinolin-2-one], 100 to 1000 nM. Regarding `O=C(O)[C@H]1C[C@@H](c2c[nH]c3ncc4ccccc4c32)C1` [Compound 32, (1s,3s)-3-(3H-pyrrolo[2,3-c]isoquinolin-1-yl)cyclobutane-1-carboxylic acid], the IC50 (Compounds of Formula (I)) fell in the range of 100 to 1000 nM.

For the molecule `Cc1cc2c(ncc3ccc(-c4cnc(C#CC5CCOCC5)s4)cc32)[nH]1` [Compound 64], the IC50 (Compounds of Formula (I)) was in the range of 10 to 100 nM. On to `CN1CCc2c([nH]c(=O)c3cc(-c4ccnc5c4CCO5)ccc23)C1` [Compound 13], for which the IC50 (Compounds of Formula (IV)) lay within 1000 to 5000 nM.

Take `Cn1cc(-c2ccc3cnc4ncn(C5CCC5)c4c3c2)cn1` [Compound 58, 1-cyclobutyl-8-(1-methyl-1H-pyrazol-4-yl)-1H-imidazo[4,5-c]isoquinoline]: the IC50 (Compounds of Formula (I)) fell in the range of 10 to 100 nM.

As to `Cn1cc(-c2ccc3cnc4occc4c3c2)cn1` [Compound 76, 8-(1-methyl-1H-pyrazol-4-yl)furo[2,3-c]isoquinoline], under “Compounds of Formula (I)”, the IC50 fell in the range of 10 to 100 nM.
